Assays:
[1] = tested on: IGF-dependent small cell lung cancer organoids; experiment: Effect of IGF1R inhibitor in vitro: number of living cells (CellTiter-Glo); format: cell-based, human; conditions: 0.1, 1, 10, 100 μM in complete medium, fifth day after adding the drug, vs DMSO
Protocol: An IGF1R inhibitor was added to the medium of small cell lung cancer organoids, and the effect on the growth of small cell lung cancer organoids was investigated. As small cell lung cancer organoids, a plurality of types of each of IGF-dependent small cell lung cancer organoid lines and IGF-independent small cell lung cancer organoid lines were used. Furthermore, linsitinib (CAS number: 867160-71-2) was used as an IGF1R inhibitor. In addition, the number of living cells was measured using a commercially available kit (product name “CellTiter-Glo”, Promega). A small cell lung cancer organoid was dissociated into a single cell using TrypLE Express (Thermo Fisher Scientific), and further filtered using a 20 μm cell strainer. Then, 3×10^3 per well cells were seeded and cultured in complete medium added with 0.1, 1, 10, and 100 μM lincitinib. In addition, as a control, a group in which dimethyl sulfoxide (DMSO), which was used as a solvent for linsitinib, was added was also prepared. The number of living cells was measured on the fifth day after adding the drug.

[2] = tested on: IGF-dependent small cell lung cancer organoids; experiment: In vitro apoptosis assay (Annexin V-FITC / propidium iodide flow cytometry); format: cell-based, human; conditions: 1 μM, cultured for 5 days, vs DMSO
Protocol: An IGF1R inhibitor was added to the medium of small cell lung cancer organoids, and the occurrence of apoptosis was measured. First, a small cell lung cancer organoid was dissociated into a single cell using TrypLE Express (Thermo Fisher Scientific), further, filtered using a 20 μm cell strainer. Next, add 5×10^4 cells per well were seeded to a […], and cultured for 5 days in the presence of 1 μM IGF1R inhibitor or 1 μM FGFR inhibitor. DMSO was added to the control cell culture medium. Subsequently, using a commercially available kit (product name “TACS Annexin V-FITC Apoptosis Detection Kit”, R&D System), the induction of apoptosis was measured by flow cytometry using the BD FACSCalibur system (Becton Dickinson). FIG. 10 is a graph showing the results of the flow cytometry. In FIG. 10, the propidium iodide-positive and Annexin V-positive cells are the cells in which apoptosis was induced.

[3] = tested on: KOR317 line (YAP1 positive subtype, IGF-dependent small cell lung cancer organoid); experiment: Effect of IGF1R inhibitor in vivo: tumor volume in mice transplanted with KOR317 line; conditions: KOR317 (YAP1-positive, IGF-dependent) subcutaneous in NOD/Shi-scid, IL-2Rγ mice; 50 mg/kg once a day, 5 days a week, 5 weeks; vs vehicle
Protocol: (§1) Specifically, first, small cell lung cancer organoids (KOR317 line and KOR457 line) were peeled off from Matrigel (registered trademark) using cell recovery solution (BD Bioscience). The peeled small cell lung cancer organoids were kept on ice for 30 minutes while being loosened by pipetting every 10 minutes. Next, approximately 1×10^5 of respective small cell lung cancer organoids was resuspended in about 50 μL of Matrigel, and the respective suspensions was subcutaneously injected into mice. As the mice, 6-10 weeks old NOD/Shi-scid, IL-2Rγ mice were used. Once the tumor diameter (long×short×height/2) was approximately 100-150 mm^3, the subjects were randomly divided into a drug administration group and a placebo treatment group. Each group was set as n≥3. Subsequently, linsitinib (50 mg/kg) was administered to the drug administration group, and vehicle was administered to the placebo treatment group once a day, 5 days a week, for a total of 5 weeks. Linsitinib was dissolved in 30% PEG400-0.5% tween80-5% propylene glycol (vehicle) and administered. Tumor diameter (major axis×short axis×height/2) was measured once a week.

[4] = tested on: KOR457 line (ASCL1 positive subtype, IGF-independent small cell lung cancer organoid); experiment: Effect of IGF1R inhibitor in vivo: tumor volume in mice transplanted with KOR457 line; conditions: KOR457 (ASCL1-positive, IGF-independent) subcutaneous in NOD/Shi-scid, IL-2Rγ mice; 50 mg/kg once a day, 5 days a week, 5 weeks; vs vehicle
Protocol: as §1

## C[C@]1(O)C[C@@H](c2nc(-c3ccc4ccc(-c5ccccc5)nc4c3)c3c(N)nccn32)C1 [IGF1R inhibitor, linsitinib]
[1]
  growth of organoids (number of living cells): inhibits the growth
[2]
  induction of apoptosis (propidium iodide-positive and Annexin V-positive cells): induces apoptosis
[3]
  tumor growth (tumor volume over time): tumor growth was suppressed
[4]
  tumor growth (tumor volume over time): no effect

From US20240385180A1, “PRODUCTION OF ORGANOID DERIVED FROM CTC OF SMALL CELL LUNG CANCER PATIENT, AND IGF1R INHIBITOR AS A MOLECULAR TARGET DRUG FOR SMALL CELL LUNG CANCER” (KEIO UNIVERSITY, priority 2021, published 2024)
